Data from publication doi:10.1101/2024.08.13.607785v1 (biorxiv, 2024).
Where two headings read alike, the source gives them in different places. One block for each compound: values may come before it.

Experiments:
Assay in all cases: biochemical
Set-up in all cases: species or system human cell line lysate
[1] = target: 3-phosphoinositide-dependent protein kinase 1 ; PDPK1 ; O15530 (Homo sapiens, UniProt O15530)
[2] = target: Beta-adrenergic receptor kinase 1 ; GRK2 ; P25098 (Homo sapiens, UniProt P25098)
[3] = target: Casein kinase I isoform delta ; CSNK1D ; P48730 (Homo sapiens, UniProt P48730)
[4] = target: DNA-dependent protein kinase catalytic subunit ; PRKDC ; P78527 (Homo sapiens, UniProt P78527)
[5] = target: Isoform 2 of Ribosomal protein S6 kinase alpha-1 ; RPS6KA1 ; Q15418-2 (Homo sapiens, UniProt Q15418)
[6] = target: Isoform 4 of Casein kinase I isoform gamma-3 ; CSNK1G3 ; Q9Y6M4-4 (Homo sapiens, UniProt Q9Y6M4)
[7] = target: Isoform Beta of cGMP-dependent protein kinase 1 ; PRKG1 ; Q13976-2 (Homo sapiens, UniProt Q13976)
[8] = target: LIM domain kinase 2 ; LIMK2 ; P53671 (Homo sapiens, UniProt P53671)
[9] = target: Microtubule-associated serine/threonine-protein kinase 2 ; MAST2 ; Q6P0Q8 (Homo sapiens, UniProt Q6P0Q8)
[10] = target: Mitogen-activated protein kinase 15 ; MAPK15 ; Q8TD08 (Homo sapiens, UniProt Q8TD08)
[11] = target: Mitogen-activated protein kinase kinase kinase 1 ; MAP3K1 ; Q13233 (Homo sapiens, UniProt Q13233)
[12] = target: Mitogen-activated protein kinase kinase kinase 3 ; MAP3K3 ; Q99759 (Homo sapiens, UniProt Q99759)
[13] = target: Phosphorylase b kinase gamma catalytic chain, liver/testis isoform ; PHKG2 ; P15735 (Homo sapiens, UniProt P15735)
[14] = target: Pyridoxal kinase ; PDXK ; O00764 (Homo sapiens, UniProt O00764)
[15] = target: Rho-associated protein kinase 1 ; ROCK1 ; Q13464 (Homo sapiens, UniProt Q13464)
[16] = target: Ribosomal protein S6 kinase alpha-6 ; RPS6KA6 ; Q9UK32 (Homo sapiens, UniProt Q9UK32)
[17] = target: Serine/threonine-protein kinase 4 ; STK4 ; Q13043 (Homo sapiens, UniProt Q13043)
[18] = target: Serine/threonine-protein kinase N2 ; PKN2 ; Q16513 (Homo sapiens, UniProt Q16513)
[19] = target: Serine/threonine-protein kinase Nek3 ; NEK3 ; P51956 (Homo sapiens, UniProt P51956)
[20] = target: Serine/threonine-protein kinase PAK 5 ; PAK5 ; Q9P286 (Homo sapiens, UniProt Q9P286)
[21] = target: TGF-beta receptor type-1 ; TGFBR1 ; P36897 (Homo sapiens, UniProt P36897)
[22] = target: Tyrosine-protein kinase Mer ; MERTK ; Q12866 (Homo sapiens, UniProt Q12866)
[23] = target: cAMP-dependent protein kinase catalytic subunit PRKX ; PRKX ; P51817 (Homo sapiens, UniProt P51817)
[24] = read-out: BAY-1251152 (10 µM) / %Intensity relative to DMSO
[25] = read-out: BAY-1143572 (10 µM) / %Intensity relative to DMSO

Chain of Serine/threonine-protein kinase PAK 5 ; PAK5 ; Q9P286 (Q9P286 whole entry, one chain of several): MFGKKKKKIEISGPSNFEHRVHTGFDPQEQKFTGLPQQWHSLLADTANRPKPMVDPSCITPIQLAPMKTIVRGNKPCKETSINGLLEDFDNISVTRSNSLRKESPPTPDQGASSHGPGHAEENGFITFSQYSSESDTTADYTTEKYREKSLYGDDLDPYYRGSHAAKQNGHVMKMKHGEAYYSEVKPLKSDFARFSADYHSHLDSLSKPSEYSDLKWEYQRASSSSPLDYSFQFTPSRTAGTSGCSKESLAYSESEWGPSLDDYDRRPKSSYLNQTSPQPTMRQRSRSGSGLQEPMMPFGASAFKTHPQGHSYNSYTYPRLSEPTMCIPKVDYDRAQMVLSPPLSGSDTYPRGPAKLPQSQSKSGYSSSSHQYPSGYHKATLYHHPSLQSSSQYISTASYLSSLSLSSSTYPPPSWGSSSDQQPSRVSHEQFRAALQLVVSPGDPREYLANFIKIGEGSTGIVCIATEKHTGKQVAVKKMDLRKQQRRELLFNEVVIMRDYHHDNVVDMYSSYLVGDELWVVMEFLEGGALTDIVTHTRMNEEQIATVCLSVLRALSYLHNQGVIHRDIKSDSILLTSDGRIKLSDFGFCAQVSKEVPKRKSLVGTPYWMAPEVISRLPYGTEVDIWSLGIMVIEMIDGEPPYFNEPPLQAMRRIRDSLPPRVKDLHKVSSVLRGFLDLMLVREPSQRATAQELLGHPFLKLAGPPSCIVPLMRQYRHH
Chain of Serine/threonine-protein kinase N2 ; PKN2 ; Q16513 (Q16513 whole entry, one chain of several): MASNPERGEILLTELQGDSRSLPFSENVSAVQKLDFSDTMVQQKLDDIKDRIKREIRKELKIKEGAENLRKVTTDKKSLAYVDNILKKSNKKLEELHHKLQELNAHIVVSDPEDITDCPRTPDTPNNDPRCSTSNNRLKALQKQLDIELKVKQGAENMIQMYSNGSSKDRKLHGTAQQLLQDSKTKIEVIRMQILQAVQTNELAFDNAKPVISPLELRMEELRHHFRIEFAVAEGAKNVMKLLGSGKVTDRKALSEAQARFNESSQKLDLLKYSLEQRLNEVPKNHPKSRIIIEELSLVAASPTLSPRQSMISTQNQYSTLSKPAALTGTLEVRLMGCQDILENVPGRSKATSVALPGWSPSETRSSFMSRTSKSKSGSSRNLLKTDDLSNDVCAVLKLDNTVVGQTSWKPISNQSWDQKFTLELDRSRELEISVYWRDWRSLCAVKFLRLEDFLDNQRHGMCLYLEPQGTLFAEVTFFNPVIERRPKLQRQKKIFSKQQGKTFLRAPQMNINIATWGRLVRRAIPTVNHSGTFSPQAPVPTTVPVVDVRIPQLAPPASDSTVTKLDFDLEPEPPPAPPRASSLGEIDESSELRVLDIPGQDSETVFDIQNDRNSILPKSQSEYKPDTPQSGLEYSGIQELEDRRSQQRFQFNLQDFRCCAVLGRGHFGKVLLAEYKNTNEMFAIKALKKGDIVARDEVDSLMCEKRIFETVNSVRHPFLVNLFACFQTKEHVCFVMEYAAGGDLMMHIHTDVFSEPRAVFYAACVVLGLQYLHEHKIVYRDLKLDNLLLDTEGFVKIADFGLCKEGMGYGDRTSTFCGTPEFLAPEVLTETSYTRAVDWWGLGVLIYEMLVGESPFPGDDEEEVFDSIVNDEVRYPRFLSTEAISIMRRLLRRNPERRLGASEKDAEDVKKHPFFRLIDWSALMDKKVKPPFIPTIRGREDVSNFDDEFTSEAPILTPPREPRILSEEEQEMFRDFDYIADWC
Chain of 3-phosphoinositide-dependent protein kinase 1 ; PDPK1 ; O15530 (O15530 whole entry): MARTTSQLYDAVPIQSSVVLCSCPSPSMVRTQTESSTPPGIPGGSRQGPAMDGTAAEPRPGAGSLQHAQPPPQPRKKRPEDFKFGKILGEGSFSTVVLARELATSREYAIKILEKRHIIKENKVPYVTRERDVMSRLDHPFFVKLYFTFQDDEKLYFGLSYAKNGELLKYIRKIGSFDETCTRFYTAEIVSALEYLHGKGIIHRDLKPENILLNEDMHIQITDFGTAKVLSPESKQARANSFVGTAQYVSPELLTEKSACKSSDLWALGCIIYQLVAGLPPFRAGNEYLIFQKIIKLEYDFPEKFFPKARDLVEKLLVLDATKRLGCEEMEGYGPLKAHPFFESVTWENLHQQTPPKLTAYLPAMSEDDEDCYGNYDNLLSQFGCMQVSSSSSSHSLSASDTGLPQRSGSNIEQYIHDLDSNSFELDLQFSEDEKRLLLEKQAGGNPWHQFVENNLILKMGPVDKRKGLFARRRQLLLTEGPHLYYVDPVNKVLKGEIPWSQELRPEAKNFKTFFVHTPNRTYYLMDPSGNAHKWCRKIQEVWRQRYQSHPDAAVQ
Chain of Beta-adrenergic receptor kinase 1 ; GRK2 ; P25098 (P25098 whole entry, canonical isoform): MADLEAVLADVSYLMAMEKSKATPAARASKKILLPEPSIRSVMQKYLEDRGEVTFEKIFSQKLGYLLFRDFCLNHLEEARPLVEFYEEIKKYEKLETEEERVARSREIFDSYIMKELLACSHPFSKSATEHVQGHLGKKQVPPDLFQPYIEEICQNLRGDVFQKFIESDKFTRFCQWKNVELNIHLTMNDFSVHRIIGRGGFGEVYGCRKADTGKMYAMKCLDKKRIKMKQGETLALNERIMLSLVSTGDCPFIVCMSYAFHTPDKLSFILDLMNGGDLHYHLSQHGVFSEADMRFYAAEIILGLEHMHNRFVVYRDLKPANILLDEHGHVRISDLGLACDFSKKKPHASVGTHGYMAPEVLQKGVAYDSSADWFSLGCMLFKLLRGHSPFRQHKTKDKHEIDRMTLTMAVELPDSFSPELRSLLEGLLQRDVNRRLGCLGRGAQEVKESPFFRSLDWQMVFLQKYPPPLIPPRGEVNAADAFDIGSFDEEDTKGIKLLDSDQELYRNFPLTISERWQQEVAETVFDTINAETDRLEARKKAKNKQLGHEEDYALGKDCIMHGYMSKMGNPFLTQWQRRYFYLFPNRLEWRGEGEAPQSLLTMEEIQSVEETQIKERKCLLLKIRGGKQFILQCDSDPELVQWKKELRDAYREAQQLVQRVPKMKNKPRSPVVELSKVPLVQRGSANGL
Chain of Serine/threonine-protein kinase 4 ; STK4 ; Q13043 (Q13043 whole entry, one chain of several): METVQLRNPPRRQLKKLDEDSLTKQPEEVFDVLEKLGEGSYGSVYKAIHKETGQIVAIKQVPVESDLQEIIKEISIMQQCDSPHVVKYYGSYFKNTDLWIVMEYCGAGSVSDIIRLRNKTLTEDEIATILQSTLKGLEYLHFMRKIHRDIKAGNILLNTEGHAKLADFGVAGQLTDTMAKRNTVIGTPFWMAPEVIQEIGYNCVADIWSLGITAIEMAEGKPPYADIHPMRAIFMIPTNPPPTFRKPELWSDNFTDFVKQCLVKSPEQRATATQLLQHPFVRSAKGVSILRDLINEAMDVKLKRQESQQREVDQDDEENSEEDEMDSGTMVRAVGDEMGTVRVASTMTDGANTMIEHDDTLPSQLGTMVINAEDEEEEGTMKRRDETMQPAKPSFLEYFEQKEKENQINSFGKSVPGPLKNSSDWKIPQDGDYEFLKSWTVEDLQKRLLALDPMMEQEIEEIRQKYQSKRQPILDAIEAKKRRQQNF
Chain of Mitogen-activated protein kinase kinase kinase 1 ; MAP3K1 ; Q13233 (Q13233 whole entry): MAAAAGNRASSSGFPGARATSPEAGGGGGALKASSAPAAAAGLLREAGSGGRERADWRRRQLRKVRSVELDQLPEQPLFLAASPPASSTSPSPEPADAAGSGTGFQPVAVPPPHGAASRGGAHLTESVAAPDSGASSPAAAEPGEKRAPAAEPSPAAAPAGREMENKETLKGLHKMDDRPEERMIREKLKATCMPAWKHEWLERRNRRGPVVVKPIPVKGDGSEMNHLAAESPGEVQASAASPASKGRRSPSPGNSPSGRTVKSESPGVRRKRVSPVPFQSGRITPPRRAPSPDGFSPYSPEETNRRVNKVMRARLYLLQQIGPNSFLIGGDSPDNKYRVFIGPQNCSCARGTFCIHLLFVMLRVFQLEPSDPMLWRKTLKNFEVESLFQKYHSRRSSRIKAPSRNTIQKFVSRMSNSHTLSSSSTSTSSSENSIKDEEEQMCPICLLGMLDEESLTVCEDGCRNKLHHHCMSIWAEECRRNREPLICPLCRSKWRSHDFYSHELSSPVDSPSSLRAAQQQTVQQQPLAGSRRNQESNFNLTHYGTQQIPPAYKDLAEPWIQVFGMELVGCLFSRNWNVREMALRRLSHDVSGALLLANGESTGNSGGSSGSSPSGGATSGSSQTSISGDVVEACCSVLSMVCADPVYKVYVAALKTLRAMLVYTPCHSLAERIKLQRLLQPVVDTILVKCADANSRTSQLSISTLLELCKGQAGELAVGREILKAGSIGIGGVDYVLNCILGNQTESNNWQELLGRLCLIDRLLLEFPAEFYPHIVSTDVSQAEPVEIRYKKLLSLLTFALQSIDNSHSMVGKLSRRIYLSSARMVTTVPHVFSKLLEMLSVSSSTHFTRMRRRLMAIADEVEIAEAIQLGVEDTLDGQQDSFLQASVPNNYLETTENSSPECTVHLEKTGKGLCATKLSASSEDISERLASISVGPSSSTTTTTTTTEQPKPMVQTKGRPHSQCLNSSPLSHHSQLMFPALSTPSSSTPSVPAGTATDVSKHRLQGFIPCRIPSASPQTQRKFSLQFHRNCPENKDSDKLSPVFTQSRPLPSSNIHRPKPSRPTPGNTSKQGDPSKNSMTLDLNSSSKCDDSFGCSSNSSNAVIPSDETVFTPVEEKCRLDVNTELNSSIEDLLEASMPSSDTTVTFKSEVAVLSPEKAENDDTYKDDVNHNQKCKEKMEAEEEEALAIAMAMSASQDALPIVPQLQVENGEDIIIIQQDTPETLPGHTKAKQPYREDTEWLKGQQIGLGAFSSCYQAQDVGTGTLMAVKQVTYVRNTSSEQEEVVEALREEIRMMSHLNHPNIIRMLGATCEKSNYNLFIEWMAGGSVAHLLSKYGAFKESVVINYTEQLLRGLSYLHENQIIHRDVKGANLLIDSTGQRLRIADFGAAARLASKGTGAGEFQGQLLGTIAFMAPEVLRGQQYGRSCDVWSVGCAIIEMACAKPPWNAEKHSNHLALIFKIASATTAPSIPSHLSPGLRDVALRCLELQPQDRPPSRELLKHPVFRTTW

remaining activity at 10 µM [1, 24]: 104% | remaining activity at 10 µM [2, 24]: 131% | remaining activity at 10 µM [3, 24]: 117% | remaining activity at 10 µM [4, 24]: 107% | remaining activity at 10 µM [5, 24]: 108% | remaining activity at 10 µM [6, 24]: 110% | remaining activity at 10 µM [7, 24]: 117% | remaining activity at 10 µM [8, 24]: 109% | remaining activity at 10 µM [9, 24]: 32.9% | remaining activity at 10 µM [11, 24]: 82.4% | remaining activity at 10 µM [12, 24]: 114% | remaining activity at 10 µM [13, 24]: 100% | remaining activity at 10 µM [14, 24]: 119% | remaining activity at 10 µM [15, 24]: 110% | remaining activity at 10 µM [16, 24]: 118% | remaining activity at 10 µM [17, 24]: 94.2% | remaining activity at 10 µM [18, 24]: 222% | remaining activity at 10 µM [19, 24]: 112% | remaining activity at 10 µM [20, 24]: 143% | remaining activity at 10 µM [21, 24]: 114% | remaining activity at 10 µM [22, 24]: 52.5% | remaining activity at 10 µM [23, 24]: 140%
Compound: COc1cc(F)ccc1-c1cc(Nc2cc(CS(C)(=N)=O)ccn2)ncc1F (stereo not shown) [BAY-1251152]
remaining activity at 10 µM [10, 24]: 101%

remaining activity at 10 µM [1, 25]: 114% | remaining activity at 10 µM [2, 25]: 142% | remaining activity at 10 µM [3, 25]: 121% | remaining activity at 10 µM [4, 25]: 106% | remaining activity at 10 µM [5, 25]: 116% | remaining activity at 10 µM [6, 25]: 113% | remaining activity at 10 µM [7, 25]: 130% | remaining activity at 10 µM [8, 25]: 78% | remaining activity at 10 µM [9, 25]: 42.2% | remaining activity at 10 µM [11, 25]: 73.3% | remaining activity at 10 µM [12, 25]: 120% | remaining activity at 10 µM [13, 25]: 107% | remaining activity at 10 µM [14, 25]: 139% | remaining activity at 10 µM [15, 25]: 114% | remaining activity at 10 µM [16, 25]: 133% | remaining activity at 10 µM [17, 25]: 108% | remaining activity at 10 µM [18, 25]: 222% | remaining activity at 10 µM [19, 25]: 88.7% | remaining activity at 10 µM [20, 25]: 138% | remaining activity at 10 µM [21, 25]: 115% | remaining activity at 10 µM [22, 25]: 86.5% | remaining activity at 10 µM [23, 25]: 152%
Compound: COc1cc(F)ccc1-c1ncnc(Nc2cccc(C[S@](C)(=N)=O)c2)n1 [BAY-1143572]
remaining activity at 10 µM [10, 25]: 98.2%
